Laboratory results as given in patent US10239832B2, “N-(1-hydroxy-3-(pyrrolidinyl)propan-2-yl)pyrrolidine-3-carboxamide derivatives as glucosylceramide synthase inhibitors” (BIOMARIN PHARMACEUTICAL INC., priority 2013, dated 2019).

These compounds were tested against T1, GCS (Canis lupus familiaris, UniProt A0A8I3MXG6) (assay: GCS enzymatic assay (MDCK cell lysate, NBD-ceramide to glucosylceramide, LC/MS)). Conditions: Table 2; class symbols A, B, C; the table does not say which of the assays; read-out: Data Range (IC50 values).
T1 construct: endogenous in cells; host or cells: MDCK (Madin-Darby canine kidney) cells, whole-cell lysate
T1 sequence (A0A8I3MXG6 1-394): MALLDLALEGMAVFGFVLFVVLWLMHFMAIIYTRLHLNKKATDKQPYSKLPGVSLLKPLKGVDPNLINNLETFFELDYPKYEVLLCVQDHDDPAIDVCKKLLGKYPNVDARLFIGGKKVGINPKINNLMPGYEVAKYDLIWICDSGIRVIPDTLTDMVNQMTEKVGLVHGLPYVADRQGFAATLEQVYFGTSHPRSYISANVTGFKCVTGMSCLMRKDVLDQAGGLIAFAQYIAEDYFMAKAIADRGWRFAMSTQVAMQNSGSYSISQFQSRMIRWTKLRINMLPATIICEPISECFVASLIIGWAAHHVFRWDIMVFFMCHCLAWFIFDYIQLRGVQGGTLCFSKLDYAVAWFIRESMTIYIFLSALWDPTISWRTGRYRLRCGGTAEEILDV
Assay type: biochemical, canine
Summary of the method: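 Dog MDCK cell lysate served as enzyme source, with NBD-ceramide turned over to glucosylceramide and 0.1% DMSO as mock control. The reaction was stopped with acetonitrile. Both lipids were quantified by LC/MS/MS in ESI positive MRM mode against a tolbutamide internal standard, giving IC50 or percent inhibition.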

| IC50 | Compound |
| --- | --- |
| 0.001 to 0.03 µM | C=COc1ccc([C@@H](O)[C@@H](CN2CCCC2)NC(=O)[C@@H]2CCN(c3ccc(Cl)cc3)C2)cc1Cl [Compound 147, (R)-N-((1R,2R)-1-(3-chloro-4-(vinyloxy)phenyl)-1-hydroxy-3-(pyrrolidin-1-yl)propan-2-yl)-1-(4-chlorophenyl)pyrrolidine-3-carboxamide] |
| 0.001 to 0.03 µM | O=C(N[C@H](CN1CCCC1)[C@H](O)c1ccc(OC2CC2)cc1)[C@@H]1CCN(c2ccc(F)cc2)C1 [Compound 148, (R)-N-((1R,2R)-1-(4-cyclopropoxyphenyl)-1-hydroxy-3-(pyrrolidin-1-yl)propan-2-yl)-1-(4-fluorophenyl)pyrrolidine-3-carboxamide] |
| 0.001 to 0.03 µM | O=C(N[C@H](CN1CCCC1)[C@H](O)c1ccc(OC2CC2)c(Cl)c1)[C@@H]1CCN(c2ccccc2)C1 [Compound 150, (R)-N-((1R,2R)-1-(3-chloro-4-cyclopropoxyphenyl)-1-hydroxy-3-(pyrrolidin-1-yl)propan-2-yl)-1-phenylpyrrolidine-3-carboxamide] |
| 0.1 to 1 µM | O=C(N[C@H](CN1CCCC1)[C@H](O)c1cc(F)c2c(c1)OCCO2)[C@@]1(O)CCN(c2ccc(Cl)cc2)C1 [Compound 154C, (R)-1-(4-chlorophenyl)-N-((1R,2R)-1-(8-fluoro-2,3-dihydrobenzo[b][1,4]dioxin-6-yl)-1-hydroxy-3-(pyrrolidin-1-yl)propan-2-yl)-3-hydroxypyrrolidine-3-carboxamide] |
| 0.03 to 0.1 µM | O=C(N[C@H](CN1CCC1)[C@H](O)c1ccc(OC2CC2)cc1)[C@@H]1CCN(c2ccc3cc(F)ccc3c2)C1 [Compound 159, (R)-N-((1R,2R)-3-(azetidin-1-yl)-1-(4-cyclopropoxyphenyl)-1-hydroxypropan-2-yl)-1-(6-fluoronaphthalen-2-yl)pyrrolidine-3-carboxamide] |
| 0.001 to 0.03 µM | O=C(N[C@H](CN1CCCC1)[C@H](O)c1ccc(OC(F)F)cc1)[C@@H]1CCN(c2ccccc2)C1 [Compound 161, (R)-N-((1R,2R)-1-(4-(difluoromethoxy)phenyl)-1-hydroxy-3-(pyrrolidin-1-yl)propan-2-yl)-1-phenylpyrrolidine-3-carboxamide] |

More lines, now with the values behind:

| Compound | IC50 |
| --- | --- |
| O=C(N[C@H](CN1CCCC1)[C@H](O)c1ccc(OC2CC2)c(Cl)c1)[C@@H]1CCN(c2ccc(Cl)c(-c3ccc(F)cc3)n2)C1 [Compound 146, (R)-N-((1R,2R)-1-(3-chloro-4-cyclopropoxyphenyl)-1-hydroxy-3-(pyrrolidin-1-yl)propan-2-yl)-1-(5-chloro-6-(4-fluorophenyl)pyridin-2-yl)pyrrolidine-3-carboxamide] | 0.001 to 0.03 µM |
| O=C(N[C@H](CN1CCCC1)[C@H](O)c1ccc(OC2CC2)cc1)[C@@H]1CCN(c2ccccc2)C1 [Compound 149, (R)-N-((1R,2R)-1-(4-cyclopropoxyphenyl)-1-hydroxy-3-(pyrrolidin-1-yl)propan-2-yl)-1-phenylpyrrolidine-3-carboxamide] | 0.001 to 0.03 µM |
| O=C(N[C@H](CN1CCCC1)[C@H](O)c1ccc(OC2CC2)c(F)c1)[C@@H]1CCN(c2ccccc2)C1 [Compound 151, (R)-N-((1R,2R)-1-(4-cyclopropoxy-3-fluorophenyl)-1-hydroxy-3-(pyrrolidin-1-yl)propan-2-yl)-1-phenylpyrrolidine-3-carboxamide] | 0.001 to 0.03 µM |
| N#Cc1ccc(N2CC[C@@H](C(=O)N[C@H](CN3CCCC3)[C@H](O)c3ccc(OC4CC4)c(Cl)c3)C2)cc1 [Compound 152, (R)-N-((1R,2R)-1-(3-chloro-4-cyclopropoxyphenyl)-1-hydroxy-3-(pyrrolidin-1-yl)propan-2-yl)-1-(4-cyanophenyl)pyrrolidine-3-carboxamide] | 0.1 to 1 µM |
| Cc1ccc(N2CC[C@@H](C(=O)N[C@H](CN3CCCC3)[C@H](O)c3ccc(OC4CC4)c(Cl)c3)C2)cc1 [Compound 153, (R)-N-((1R,2R)-1-(3-chloro-4-cyclopropoxyphenyl)-1-hydroxy-3-(pyrrolidin-1-yl)propan-2-yl)-1-(p-tolyl)pyrrolidine-3-carboxamide] | 0.001 to 0.03 µM |
| O=C(N[C@H](CN1CCCC1)[C@H](O)c1cc(F)c2c(c1)OCCO2)[C@]1(O)CCN(c2ccc(Cl)cc2)C1 [Compound 154, (S)-1-(4-chlorophenyl)-N-((1R,2R)-1-(8-fluoro-2,3-dihydrobenzo[b][1,4]dioxin-6-yl)-1-hydroxy-3-(pyrrolidin-1-yl)propan-2-yl)-3-hydroxypyrrolidine-3-carboxamide] | 0.001 to 0.03 µM |
| O=C(N[C@H](CN1CCCC1)[C@H](O)c1ccc(OC2CC2)cc1)[C@@H]1CCN(c2ccc(Cl)cc2)C1 [Compound 155, (R)-1-(4-chlorophenyl)-N-((1R,2R)-1-(4-cyclopropoxyphenyl)-1-hydroxy-3-(pyrrolidin-1-yl)propan-2-yl)pyrrolidine-3-carboxamide] | 0.001 to 0.03 µM |
| O=C(N[C@H](CN1CCCC1)[C@H](O)c1ccc(Cl)cc1)[C@@H]1CCN(c2ccc(Cl)cc2)C1 [Compound 156, (R)-1-(4-chlorophenyl)-N((1R,2R)-1-(4-chlorophenyl)-1-hydroxy-3-(pyrrolidin-1-yl)propan-2-yl)pyrrolidine-3-carboxamide] | 0.1 to 1 µM |
| O=C(N[C@H](CN1CCCC1)[C@H](O)c1ccc(OC2CC2)cc1)[C@@H]1CCN(c2ccc3ccsc3c2)C1 [Compound 157, (R)-1-(benzo[b]thiophen-6-yl)-N-((1R,2R)-1-(4-cyclopropoxyphenyl)-1-hydroxy-3-(pyrrolidin-1-yl)propan-2-yl)pyrrolidine-3-carboxamide] | 0.001 to 0.03 µM |
| O=C(N[C@H](CN1CCC1)[C@H](O)c1ccc(OC2CC2)cc1)[C@@H]1CCN(c2ccc3ccsc3c2)C1 [Compound 158, (R)-N-((1R,2R)-3-(azetidin-1-yl)-1-(4-cyclopropoxyphenyl)-1-hydroxypropan-2-yl)-1-(benzo[b]thiophen-6-yl)pyrrolidine-3-carboxamide] | 0.03 to 0.1 µM |
| O=C(N[C@H](CN1CCC1)[C@H](O)c1ccc(OC2CC2)cc1)[C@H]1CCN(c2ccc3cc(F)ccc3c2)C1 [Compound 159C, (S)-N-((1R,2R)-3-(azetidin-1-yl)-1-(4-cyclopropoxyphenyl)-1-hydroxypropan-2-yl)-1-(6-fluoronaphthalen-2-yl)pyrrolidine-3-carboxamide] | 0.1 to 1 µM |
| O=C(N[C@H](CN1CCCC1)[C@H](O)c1ccc(OC(F)F)cc1)[C@@H]1CCN(c2ccc(Cl)cc2)C1 [Compound 160, (R)-1-(4-chlorophenyl)-N-((1R,2R)-1-(4-(difluoromethoxy)phenyl)-1-hydroxy-3-(pyrrolidin-1-yl)propan-2-yl)pyrrolidine-3-carboxamide] | 0.03 to 0.1 µM |
| O=C(N[C@H](CN1CCCC1)[C@H](O)c1ccc(OC2CC2)cc1)[C@@H]1CCN(c2ccc3cc(F)ccc3c2)C1 [Compound 162, (R)-N-((1R,2R)-1-(4-cyclopropoxyphenyl)-1-hydroxy-3-(pyrrolidin-1-yl)propan-2-yl)-1-(6-fluoronaphthalen-2-yl)pyrrolidine-3-carboxamide] | 0.001 to 0.03 µM |
